Data published in patent publication US20160340732A1, “COMPOSITIONS AND METHODS FOR DIAGNOSING AND TREATING NUCLEOTIDE REPEAT DISORDERS” (University of Virginia Patent Foundation, priority 2015, published 2016).

Legend:
miR-762 = miR-762 levels in cells exposed to HDAC inhibitors; format: cell-based; details: mouse C2C12 cells, TSA 50 nM vs DMSO, 48 hours (FIG. 7)
Description: Epigenetic drugs increasing expression of miR-15 family members levels or miR762 are anticipated to have therapeutic potential. Importantly, these drugs are generally safe, and could influence NRDs even with small changes in miR levels. No regulators of miR-762 have been published, so whether candidate drugs might alter miR-762 levels in vitro were assessed. Cells were exposed to vehicle, trichostatin A (TSA, an HDAC inhibitor and antifungal agent), and valproate (an epilepsy drug, mood stabilizer, and weaker HDAC inhibitor). TSA increased miR-762 levels 65-fold (FIG. 7).

NETO1 mRNA = NETO1 mRNA levels in astrocytes transfected with miR-762 mimic, inhibitor or scrambled miR; format: cell-based; details: non-diseased astrocytes transfected with 400 nM, vs scrambled miR (FIG. 15)
Text: De novo introduction of the expanded repeat into naïve wild-type cells to induce NETO1 expression will be evaluated. […] NETO1 is not a predicted target of miR-762 by traditional in silico analysis (which relies on 3′ UTR analysis). However, a (C4G2)3 site 149 base pairs upstream of the NETO1 5′ UTR was identified that appeared significant both for its perfect replication of the C9 antisense expansion and its predicted tight pairing to miR-762 (RegRNA database: http://regrna.mbc.nctu.edu.tw/html/prediction.html). miR binding and regulation of transcripts in the 5′ region is poorly understood, but is known to occur. miR-762 may be able to bind and downregulate NETO1 transcript levels. To assess this, non-diseased astrocytes were transfected with 400 nM miR-762 mimic, miR-762 inhibitor, or scrambled miR. […] If NETO1 regulation is involved in FTLD-MND glutamate excitotoxicity, then targeting miR-762 regulation of the transcript could represent a possible therapeutic angle.

Compound	increase of miR-762 levels (miR-762)	NETO1 mRNA level (NETO1 mRNA)
CC(/C=C/C(=O)NO)=C\[C@@H](C)C(=O)c1ccc(N(C)C)cc1 [TSA, trichostatin A]	65 fold	
miR-762: miR-762 mimic transfected at 400 nM; miRNA sequence SEQ ID NO: 5 (Table 1) (CGAGCCGGGGCCGGGGUCGGGG; listed as RNA, chemistry not given here; listed as Homo sapiens)		reproducible and significant downregulation
